{"source": "patent US5492930A", "about": "“Method and formulation for treating CNS disorders” (Schering Corporation, priority 1994, dated 1996)", "key": {"[1]": {"system": "electroconvulsive shock (ECS) induced convulsions", "assay": "blocking electroconvulsive shock (ECS) induced convulsions (Swinyard et al. procedures)", "format": "in vivo"}, "[2]": {"system": "scopolamine induced cognitive deficit", "assay": "passive avoidance response (PAR) test, scopolamine induced cognitive deficit", "format": "in vivo", "conditions": "mice, sc or po (FIGS. 1 and 2)", "protocol": "FIGS. 1 and 2 are plots showing the mean latency time in the passive avoidance response (PAR) test of Compound I and arecoline in reversing scopolamine induced cognitive deficits where Compound I is administered subcutaneously (sc) or orally (po).\n(§1) See, for example Dilts and Berry, J. Pharmacology and Experimental Therapeutics 58, 279-285 (1967)."}, "[3]": {"system": "amnestic effects of MK-801", "assay": "passive avoidance response (PAR) test, amnestic effects of MK-801", "format": "in vivo", "conditions": "mice", "excerpt": "FIG. 3 is a plot showing the mean latency time in the PAR test of felbamate and Compound I in blocking the amnestic effects of MK-801.\nFIG. 4 is a plot showing the mean latency time in the PAR test of Compound I and the corresponding monoacid-monocarbamate.\n(§2) The NMDA receptor is strongly implicated in the production of long-term potentiation and subsequent memory processes (Morris, et al., Nature Vol. 319, pp 774-776 (1986)). Blockade of these sites produces amnestic effects in mice on the passive avoidance response."}, "[4]": {"system": "cognitive deficits (scopolamine, MK-801)", "assay": "cognitive enhancement (Examples I and II overall)", "format": "in vivo, mice", "conditions": "data of Examples I and II", "excerpt": "as §1, §2"}, "[5]": {"conditions": "literature statement; cited from earlier work"}, "[6]": {"system": "amnestic effects of MK-801", "conditions": "Chiamulera et al. 1990; cited from earlier work"}, "[7]": {"system": "scopolamine induced cognitive deficit", "conditions": "passive avoidance response test, mice; cited from earlier work"}, "[8]": {"conditions": "SC, blocking ECS induced convulsions, read-out: ED50"}}, "note": "Like-named read-outs stand apart in the source and are kept apart here."}
{"smiles": "NC(=O)N1c2ccccc2C=Cc2ccccc21", "note": "[Carbamazepine]", "values": [{"measurement": "ED50", "setting": "[1]; [8]", "result": 12, "unit": "mg/kg"}]}
{"smiles": "NC(=O)OCC(CO)c1ccccc1", "note": "(stereo not drawn) [Compound I, 2-phenyl-1,3-propanediol monocarbamate]", "values": [{"measurement": "antagonism of the amnestic effects of scopolamine", "setting": "[2]", "result": "antagonist for the amnestic effects of scopolamine over a very wide dosage range"}, {"measurement": "blocking the amnestic effects of MK-801", "setting": "[3]", "result": "effectively blocks the amnestic effects of MK-801 in this model at low doses"}, {"measurement": "effectiveness in blocking the effects of MK-801 vs the corresponding monoacid-monocarbamate", "setting": "[3]", "result": "more effective than the corresponding monoacid-monocarbamate"}, {"measurement": "effectiveness in blocking ECS induced convulsions vs felbamate and other known anti-convulsants", "setting": "[1]; in words", "result": "significantly less effective than felbamate and other known anti-convulsants"}, {"measurement": "ED50", "setting": "[1]; sc", "result": 173, "unit": "mg/kg"}, {"measurement": "effectiveness vs the corresponding dicarbamate and monoacid-monocarbamate compounds", "setting": "[4]", "result": "significantly more effective than the corresponding dicarbamate and monoacid-monocarbamate compounds"}]}
{"smiles": "O=C1NC(=O)C(c2ccccc2)(c2ccccc2)N1", "note": "[Dilantin]", "values": [{"measurement": "ED50", "setting": "[1]; [8]", "result": 5.5, "unit": "mg/kg"}]}
{"smiles": "NC(=O)OCC(COC(N)=O)c1ccccc1", "note": "[Felbamate, 2-phenyl-1,3-propanediol dicarbamate]", "values": [{"measurement": "blocking the amnestic effects of MK-801", "setting": "[3]", "result": "does not block the effect of MK-801"}, {"measurement": "ED50", "setting": "[1]; [8]", "result": 42.2, "unit": "mg/kg"}, {"measurement": "anticonvulsant effect", "setting": "[5]", "result": "effective anticonvulsant agent"}]}
{"smiles": "C[C@]12N[C@H](Cc3ccccc31)c1ccccc12", "note": "[MK-801]", "values": [{"measurement": "cognitive deficits produced", "setting": "[6]", "result": "produces cognitive deficits"}]}
{"smiles": "CCC1(c2ccccc2)C(=O)NC(=O)NC1=O", "note": "[Phenobarbital]", "values": [{"measurement": "ED50", "setting": "[1]; sc", "result": 12, "unit": "mg/kg"}]}
{"smiles": "CN1[C@@H]2C[C@@H](OC(=O)[C@H](CO)c3ccccc3)C[C@H]1[C@@H]1O[C@@H]12", "note": "[Scopolamine]", "values": [{"measurement": "amnestic effect", "setting": "[7]", "result": "well-known amnestic for mice in a passive avoidance response test"}]}
{"smiles": "CCCC(CCC)C(=O)O", "note": "[Valproate]", "values": [{"measurement": "ED50", "setting": "[1]; sc", "result": 550, "unit": "mg/kg"}]}
